Measurements taken from patent publication US11969428B2, “Methods and pharmaceutical compositions for treating lymphoid malignancy” (priority 2011, dated 2024).

Tests used:
[1] = Plasma levels of CAL-130; assay type: in vivo, mouse; settings: 10 mg kg−1 orally, at the end of 8 hours
Procedure: For CAL-130 level determinations, animals received a single oral dose (10 mg kg^−1 or 20 mg kg^−1) of inhibitor. Plasma was collected at 0, 2, 4, 8, and 12 hours and subjected to high-performance liquid chromatography-MS/MS (sensitivity 1 ng/mL). The concentration of CAL-130 in plasma was determined using a standard curve (analyte peak area versus concentration) generated with calibration standard pools. Values represent the mean (±SD) for four animals per group.

[2] = system: platelets; assay: ADP-induced platelet aggregation; assay type: cell-based, mouse; settings: platelets from p110γ/δ double knockout mice 2 hours post administration of CAL-130 (10 mg kg−1)
Procedure: Blood was obtained from anesthetized p110δ/γ double knockout mice via cardiac puncture. Platelets were purified from PRP by centrifugation and resuspended to a final concentration of […] in buffer (145 mM NaCl, 10 mM Hepes, 0.5 mM Na2HPO4, 5 mM KCl, 2 mM MgCl2, 1 mM CaCl2, 0.1% glucose, pH 7.4). CAL-130 (1 μM, 2.5 μM, or 5 μM final concentration) or DMSO was added to platelet suspensions 5 minutes prior to inducing aggregation with ADP (25 μM). Mouse fibrinogen (final concentration 200 μg/ml) was also added to the platelet suspensions just prior to activation as previously described (Magallon et al., 2011). Aggregation was assessed using a Chronolog Lumi-Aggregometer (model 540 VS, Chronolog, Havertown, PA). In some experiments, blood was collected 2 hours after administering a single dose of CAL-130 (10 mg kg^−1) or vehicle control and ADP-induced aggregation evaluated.

[3] = system: thymocytes; assay: Effect on thymi of 6 week old mice treated 7 days; assay type: in vivo, mouse; settings: 10 mg kg−1 every 8 hours for 7 days
Procedure: Cell counts were measured on a Hemavet 850FS system (CDC Technologies, Oxford, CT), and standard procedures were followed for staining cells with the following antibody conjugates for flow cytometry (BD Biosciences, San Jose, CA) (Cella et al., 2004): phycoerythrin (PE) anti-CD4 (clone H129.19), fluorescein (FITC), PE, cytochrome c (CyC), or biotin anti-CD8a, FITC CD3c, CyC anti-B220, and Thy 1.2. Biotinylated antibodies were detected with either streptavidin-PE or streptavidin-CyC. Subsets of DN thymocytes were analyzed based on expression of CD25 and CD44 after gating out cells that stained with a cocktail of biotinylated antibodies to CD4, CD8, B220, Mac-1, and Gr-1 followed by streptavidin Cy-Chrome.
To assess the in vivo efficacy of the inhibitor, its effects on thymi of 6 week old mice were determined, specifically for its ability to recapitulate the phenotype observed when both p110γ and p110δ are deficient. Animals received 10 mg kg^−1 of the inhibitor orally, which was sufficient to maintain plasma concentrations of 0.33±0.18 μM at the end of 8 hours (FIG. 16D). […] In particular, there was a 18-fold reduction in total thymocyte number in comparison to controls, which was primarily due to the loss of DP population (FIG. 16H). These observations are consistent with the ability of CAL-130 to preferentially block the function of both PI3Kγ and PI3Kδ.

[4] = system: CCRF-CEM cells; assay: Immunoblots of signaling downstream of PI3K; assay type: cell-based, human
Procedure: Cell lysates (from cell lines or thymocytes) were prepared on ice in M-PER Mammalian Protein Extraction reagent (Pierce) containing a cocktail of protease and phosphatase inhibitors (Swat et al., 2006). Equal amounts of total protein from lysates were subjected to SDS-PAGE, transferred to PVDF membrane (Immobilon-P, Millipore), and membranes probed by overnight incubation with appropriate primary antibodies. Bound antibodies were visualized with HRP-conjugated secondary antibodies and ECL chemistry (SuperPico West, Pierce).
The PI3K/Akt signaling pathway can play a major role in cell cycle progression and growth of tumors by regulating the activation state of the downstream targets such as glycogen synthase kinase-3β (GSK3β) and mTOR (Schmelzle and Hall, 2000; Cohen and Frame, 2001). PI3K/Akt mediated phosphorylation suppresses the function of the former and promotes the activity of the latter. Tumor cell survival, on the other hand, is largely mediated by the ability of this pathway to inactivate proapoptotic effectors such as the BH3-only pro-apoptotic protein BAD and to repress the expression of BIM, both of which participate in the mitochondria-dependent cell death pathway (Strasser et al., 2000; Duronio, 2008). Therefore, the ability of CAL-130 treatment to interfere with such events was examined. […] Downstream targets of this protein kinase were also affected as evidenced by the reduction in phosphorylation of GSK3β and mTOR. […] The latter would also explain in part the synergy between CAL-130 and dexamethasone, as BIM expression is required for glucocorticoid-induced apoptosis (Erlacher et al., 2005; Wang et al., 2003).

[5] = system: CCRF-CEM xenograft; assay: Systemic (intravenous) CCRF-CEM xenograft, survival; assay type: in vivo, mouse; settings: treatment from 3 days post-injection for 7 days
Procedure: After 3 days, mice were segregated into two treatment groups that received either CAL-130 or vehicle by oral gavage as described above for 7 days. Mice in both groups were then followed until moribund (and euthanized).
In the former, luciferase expressing CCRF-CEM cells were injected into the flanks of immunodeficient mice and allowed to grow for 1 week before administering vehicle control or inhibitor (10 mg kg^−1 every 8 hours) for a total of 4 days. In the latter, treatment commenced 3 days post-injection of tumor cells for a total of 7 days. […] This translated into an increase in median survival time for treated animals with systemic disease of 35 days versus 23 days for mice that received vehicle control alone (FIG. 19D).

[6] = system: primary human T-ALL tumor cells; assay: Primary T-ALL cell viability on MS5-DL1 stroma; assay type: cell-based; settings: primary T-ALL devoid of PTEN; 72 hours
Procedure: Cell proliferation of CCRF-CEM cells or shRNA transfected CCRF-CEM cells, in the presence or absence of appropriate drug, was followed by cell counting of samples in triplicate using a hemocytometer and trypan blue. For apoptosis determinations of untransfected or shRNA transfected CCRF-CEMs, cells were stained with APC-conjugated Annexin-V (BD Biosciences) in Annexin Binding Buffer (Miltyeni Biotec) and analyzed by flow cytometry. For primary T-ALL samples, cell viability was assessed using the BD Cell Viability kit (BD Biosciences) coupled with the use of fluorescent counting beads as previously described (Armstrong et al., 2009). For this, cells were plated with MS5-DL1 stroma cells, and after 72 hours following drug treatment cells were harvested and stained with an APC-conjugated anti-human CD45 followed by a staining with the above kit according to the manufacturer's instructions.

[7] = system: PTEN null T-ALL
Procedure: Mice deficient for PTEN in the T cell lineage were generated by crossing Lck-cre with floxed Pten (Hennet et al., 1995; Trotman et al., 2003).
Mice received an oral dose (10 mg kg^−1) of the inhibitor every 8 hours for a period of 7 days and were then followed until moribund.
Pten^fl/fl mice were crossed with a strain in which a luciferase cDNA, preceded by a LoxP-stop-LoxP cassette, was introduced into the ubiquitously expressed ROSA26 locus (Safran et al., 2003). Progeny were then crossed with Lck-cre transgenics to delete Pten in T cell progenitors and induce expression of luciferase (Lck/Pten^fl/fl; Gt(ROSA)26Sor^tm1(Luc)Kael/J).

In the case of `Cc1ccccc1-n1c(C(C)Nc2nc(N)nc3nc[nH]c23)nc2cccc(C)c2c1=O` (stereo not shown) [CAL-130], the plasma concentration [1] is reported as 330 ± 180 nM, the ADP-mediated platelet aggregation [2] is reported as “no obvious defect” and the “reduction in total thymocyte number in comparison to controls” value [3] is reported as 18 fold. For the same compound, the “expression of BIM (including L and S isoforms)” value [4] was “enhanced expression”, the “phosphorylation of BAD” value [4] was “reduction” and the “phosphorylation of GSK3β” value [4] was “reduction”. For the same compound, the “phosphorylation of mTOR” value [4] was “reduction”, the “Akt (Ser473) phosphorylation” value ([4]; 2.5 μM, 6 hours) was “complete abrogation” and the median survival time [5] was 35 days. For the same compound, the tumor cell viability [6] was “reduction in tumor cell viability”, the “weights of thymi, liver, spleen, and kidneys versus vehicle control” value ([7]; 7 days treatment) was “significantly less” and the median survival ([7]; Lck/Pten fl/fl mice with T-ALL, oral 10 mg kg−1 every 8 hours for 7 days) was 45 days. For the same compound, the WBC ([7]; Lck/Pten fl/fl mice, by day 4) was “dramatic reduction”, the “apoptosis (sub-G0 population after PI staining)” value ([7]; Lck/Pten fl/fl mice, days 4 through 7) was “increase in apoptosis” and the bioluminescent signals ([7]; Lck/Pten fl/fl;Gt(ROSA)26Sor luciferase mice, day 4 of treatment) was “dramatically lower”. The “peripheral blood T-ALL cells” value ([7]; diseased Lck/Pten fl/fl mice, within hours of treatment (data not shown)) was “dramatic and sustained reduction”.
